Assay results: paper PMC6155239, “Targeting PFKFB3 radiosensitizes cancer cells and suppresses homologous recombination” (Nature Communications, 2018)

Columns and labels:
[1] = test system: cell lines representing pancreatic, gastric, and colon cancer; assay: Cell viability of cancer cell lines; assay type: cell-based; details: prolonged incubation (72 h)
Protocol: Cell proliferation was assayed by quantifying total cellular protein levels after indicated treatments and incubation times using the Sulphorhodamine B kit, TOX6 (Sigma-Aldrich). MIA PaCa-2, PANC1, SW620, and SW480 cells were plated at a density of 6 × 10^3 cells/well in 96-well plates (CLS3596, Sigma-Aldrich) and allowed to attach overnight. The following day, compounds were diluted in dose–response curve mode, required volume was transferred to assay medium to a maximal DMSO concentration of 0.1%. The diluted compounds were added to the cells with a starting dose–response concentration of 100 µM, all compounds were tested in duplicate plates. After 72 h of incubation with compounds, total protein per well was precipitated using TCA according to the manufacturer's instructions; the sulphorhodamine dye was added to the air-dried wells. After 20 min incubation at room temperature, the dye was discarded and the samples were gently rinsed with 1% HOAc until clear. After air drying, bound dye was solubilized in 10 mM Tris base, and the absorbance of dye was measured at 565 nm. To quantify growth, samples were collected also at t = 0 h, and the resulting absorbance was set to 100%.

BJ TERT cells = assay: Clonogenic survival, BJ TERT; assay type: cell-based; details: with and without IR (2 Gy), concentrations active in BJ RAS
Protocol: (§1) U2OS cells were transfected with indicated siRNAs and 24 h later exposed to IR (2 Gy) or left untreated and allowed to recover for 4 h. One-hundred U2OS cells were then seeded into 6-well plates and after 10 days colonies were fixed and stained with 4% methylene blue (Sigma Aldrich) in methanol. BJ TERT (500 cells), BJ RAS (200 cells), or U2OS (200 cells) were seeded into 6-well plates 24 h prior to treatment with inhibitors as indicated or vehicle for 24 h and then subjected to IR (2 Gy). The inhibitors were washed out 72 h later and colonies were fixed 4 days (BJ RAS) or 7 days (BJ TERT) later with 4% methylene blue in methanol.

U2OS cells [2] = assay: IR-induced Mre11 / Nbs1 foci formation; assay type: cell-based; details: treatment prior to IR (6 Gy, 2 h recovery)
Protocol: Cells were grown on sterilized coverslips and fixed with 4% paraformaldehyde (PFA) (Santa Cruz) and 2% sucrose (Sigma Aldrich) for 15 min at room temperature. They were then permeabilized with 0.2% NP-40 (Thermo Scientific) for 10 min at room temperature followed by 30 min of blocking in blocking buffer (2 or 3% BSA, 5% glycerol, 0.1% Tween 20 (Sigma Aldrich)). Coverslips were subsequently incubated for 1, 2, or 24 h in primary antibody and 40 min in secondary antibody diluted in blocking buffer, DNA was stained with DAPI for 10 min. The coverslips were mounted with Prolonged Gold mounting medium (Invitrogen). Images were acquired with a Zeiss LSM 780 microscope using a 40× or 63× oil immersion lens and processed in ImageJ and CellProfiler.

U2OS cells [3] = assay: Clonogenic survival, U2OS; assay type: cell-based; details: U2OS pre-treated prior to IR, colonies 10 days post treatments
Protocol: as §1

BRAF(V600E) = biological target: T1, BRAF(V600E) (Homo sapiens, UniProt P15056, V600E); assay: KINOMEscan; assay type: binding; details: 2000 nM; read-out: Percent Control
T1 construct: purchased DiscoverX (Eurofins) KINOMEscan / scanEDGE, inferred from the naming style
T1 sequence (P15056 whole entry V600E): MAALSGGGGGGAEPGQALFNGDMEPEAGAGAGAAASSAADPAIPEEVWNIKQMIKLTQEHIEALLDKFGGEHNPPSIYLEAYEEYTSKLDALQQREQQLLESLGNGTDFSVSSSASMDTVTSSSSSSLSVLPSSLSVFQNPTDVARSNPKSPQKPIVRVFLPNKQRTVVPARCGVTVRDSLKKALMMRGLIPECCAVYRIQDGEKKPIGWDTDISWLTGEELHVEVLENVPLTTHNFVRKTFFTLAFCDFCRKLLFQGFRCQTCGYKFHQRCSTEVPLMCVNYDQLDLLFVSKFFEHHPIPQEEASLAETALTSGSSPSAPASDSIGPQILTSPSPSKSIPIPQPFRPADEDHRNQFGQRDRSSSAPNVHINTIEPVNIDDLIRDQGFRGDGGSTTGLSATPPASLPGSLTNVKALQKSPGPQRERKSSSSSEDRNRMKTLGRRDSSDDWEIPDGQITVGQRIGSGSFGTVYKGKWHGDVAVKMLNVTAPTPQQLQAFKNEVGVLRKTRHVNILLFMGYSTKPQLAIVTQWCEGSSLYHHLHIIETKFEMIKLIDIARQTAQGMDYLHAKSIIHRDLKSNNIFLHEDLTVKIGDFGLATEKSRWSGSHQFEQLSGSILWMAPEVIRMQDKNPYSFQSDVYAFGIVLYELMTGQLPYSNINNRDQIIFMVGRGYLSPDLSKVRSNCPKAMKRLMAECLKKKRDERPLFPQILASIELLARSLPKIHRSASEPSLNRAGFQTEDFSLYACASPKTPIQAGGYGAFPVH

CDK11 = biological target: T2, CDK11 (Homo sapiens, UniProt Q9BWU1); assay: KINOMEscan; assay type: binding; details: 2000 nM; read-out: Percent Control
T2 construct: purchased DiscoverX (Eurofins) KINOMEscan / scanEDGE, inferred from the naming style
T2 sequence (Q9BWU1 whole entry): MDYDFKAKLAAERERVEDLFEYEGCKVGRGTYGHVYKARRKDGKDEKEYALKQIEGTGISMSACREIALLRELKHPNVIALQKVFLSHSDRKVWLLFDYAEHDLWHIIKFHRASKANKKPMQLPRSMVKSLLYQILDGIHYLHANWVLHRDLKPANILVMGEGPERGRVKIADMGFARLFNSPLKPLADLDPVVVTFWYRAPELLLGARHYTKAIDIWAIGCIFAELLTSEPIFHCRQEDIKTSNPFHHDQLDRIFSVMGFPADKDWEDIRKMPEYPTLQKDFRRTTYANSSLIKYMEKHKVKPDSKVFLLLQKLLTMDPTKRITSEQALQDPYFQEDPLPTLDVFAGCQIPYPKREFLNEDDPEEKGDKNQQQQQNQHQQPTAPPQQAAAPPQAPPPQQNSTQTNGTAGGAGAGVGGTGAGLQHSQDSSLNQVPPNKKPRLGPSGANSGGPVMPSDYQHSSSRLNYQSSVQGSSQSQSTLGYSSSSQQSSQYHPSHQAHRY

AKT2 = biological target: T3, AKT2 (Homo sapiens, UniProt P31751); assay: KINOMEscan; assay type: binding; details: 2000 nM; read-out: Percent Control
T3 construct: purchased DiscoverX (Eurofins) KINOMEscan / scanEDGE, inferred from the naming style
T3 sequence (P31751 whole entry): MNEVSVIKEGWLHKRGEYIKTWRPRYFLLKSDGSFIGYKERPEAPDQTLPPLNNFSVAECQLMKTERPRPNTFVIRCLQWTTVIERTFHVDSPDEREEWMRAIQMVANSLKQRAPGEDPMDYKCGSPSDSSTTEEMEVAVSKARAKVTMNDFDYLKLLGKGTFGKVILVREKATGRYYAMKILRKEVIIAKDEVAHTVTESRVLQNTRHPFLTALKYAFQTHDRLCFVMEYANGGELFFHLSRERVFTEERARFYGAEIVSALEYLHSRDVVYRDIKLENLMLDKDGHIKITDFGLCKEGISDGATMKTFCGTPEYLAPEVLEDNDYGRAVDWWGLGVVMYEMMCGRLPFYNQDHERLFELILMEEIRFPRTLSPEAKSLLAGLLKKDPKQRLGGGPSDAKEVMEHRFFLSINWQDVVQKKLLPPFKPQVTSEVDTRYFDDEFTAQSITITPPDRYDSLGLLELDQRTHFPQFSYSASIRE

CSNK1D = biological target: T4, CSNK1D (Homo sapiens, UniProt P48730); assay: KINOMEscan; assay type: binding; details: 2000 nM; read-out: Percent Control
T4 construct: purchased DiscoverX (Eurofins) KINOMEscan / scanEDGE, inferred from the naming style
T4 sequence (P48730 whole entry): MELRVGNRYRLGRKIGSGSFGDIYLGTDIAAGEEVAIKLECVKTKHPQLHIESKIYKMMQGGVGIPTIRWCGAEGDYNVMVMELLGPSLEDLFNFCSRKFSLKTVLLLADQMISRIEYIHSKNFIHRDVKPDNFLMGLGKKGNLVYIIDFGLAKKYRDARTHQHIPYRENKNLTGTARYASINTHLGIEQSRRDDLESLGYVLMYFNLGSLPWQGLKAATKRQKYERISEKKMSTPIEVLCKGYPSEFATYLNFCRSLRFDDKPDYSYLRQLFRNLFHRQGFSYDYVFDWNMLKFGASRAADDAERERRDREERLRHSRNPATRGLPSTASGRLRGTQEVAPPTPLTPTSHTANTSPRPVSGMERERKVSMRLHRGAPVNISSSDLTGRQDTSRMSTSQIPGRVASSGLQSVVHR

PFKFB4 = PFKFB4 (Homo sapiens, UniProt Q16877); assay: ADP-Glo kinase activity assay, PFKFB4; assay type: biochemical
PFKFB4, sequence (Q16877 whole entry, species assumed): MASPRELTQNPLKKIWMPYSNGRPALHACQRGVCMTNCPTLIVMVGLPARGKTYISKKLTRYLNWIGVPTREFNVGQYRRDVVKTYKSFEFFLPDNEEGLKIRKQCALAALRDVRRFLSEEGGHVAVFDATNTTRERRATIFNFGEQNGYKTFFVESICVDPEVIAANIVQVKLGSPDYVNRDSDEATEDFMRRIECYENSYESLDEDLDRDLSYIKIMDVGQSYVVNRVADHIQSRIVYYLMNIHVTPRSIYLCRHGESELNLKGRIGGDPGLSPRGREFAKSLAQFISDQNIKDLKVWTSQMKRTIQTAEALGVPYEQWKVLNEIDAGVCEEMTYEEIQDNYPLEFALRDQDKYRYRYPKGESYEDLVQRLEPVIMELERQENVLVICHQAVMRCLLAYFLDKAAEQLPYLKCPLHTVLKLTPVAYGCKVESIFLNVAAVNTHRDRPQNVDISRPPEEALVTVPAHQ
Protocol: The kinase activity of the bi-functional enzyme was quantified based on the production of ADP and F-2,6-P2 from ATP by ADP-GloTM Kinase Assay (Promega). The assay was performed in two steps; first, after the kinase reaction, an equal volume of ADP-GloTM Reagent was added to terminate the kinase reaction and deplete the remaining ATP. Second, the Kinase Detection Reagent was added to simultaneously convert ADP to ATP and allow the newly synthesized ATP to be measured using a luciferase/luciferin reaction. The light generated was measured using a luminescence counter (1450 MicroBeta TriLux). The assay was performed in white 384-well plates (OptiPlate, 6007299, PerkinElmer) by consecutive additions of a test compound solution (0.1 µL, serial diluted in DMSO from compound DMSO stock solution and dispensed by acoustic dispensing from UV-star 384-well plate 7360153, VWR), enzyme solution (5 µL) and substrate (fructose-6-phosphate (F6P) and adenosine-5′-triphosphate (ATP)) containing solution (5 µL). […] Four reference dose–response curves, one of them being the QC compound, were included and serial diluted as the test compounds. […] The inhibitory potency or IC50 values of test compounds on the kinase activity of the enzymes were calculated using a four-parameter model (model 205) in XLfit (IDBS ActivityBase XE Runner).

CDK2 = biological target: T5, CDK2 (Homo sapiens, UniProt P24941); assay: KINOMEscan; assay type: binding; details: 2000 nM; read-out: Percent Control
T5 construct: purchased DiscoverX (Eurofins) KINOMEscan / scanEDGE, inferred from the naming style

[4] = biological target: T6, ABL1(T315I)-phosphorylated (Homo sapiens, UniProt P00519, T315I); assay: KINOMEscan; assay type: binding; details: 2000 nM; read-out: Percent Control
T6 construct: purchased DiscoverX (Eurofins) KINOMEscan / scanEDGE, inferred from the naming style

BTK = biological target: T7, BTK (Homo sapiens, UniProt Q06187); assay: KINOMEscan; assay type: binding; details: 2000 nM; read-out: Percent Control
T7 construct: purchased DiscoverX (Eurofins) KINOMEscan / scanEDGE, inferred from the naming style
T7 sequence (Q06187 whole entry): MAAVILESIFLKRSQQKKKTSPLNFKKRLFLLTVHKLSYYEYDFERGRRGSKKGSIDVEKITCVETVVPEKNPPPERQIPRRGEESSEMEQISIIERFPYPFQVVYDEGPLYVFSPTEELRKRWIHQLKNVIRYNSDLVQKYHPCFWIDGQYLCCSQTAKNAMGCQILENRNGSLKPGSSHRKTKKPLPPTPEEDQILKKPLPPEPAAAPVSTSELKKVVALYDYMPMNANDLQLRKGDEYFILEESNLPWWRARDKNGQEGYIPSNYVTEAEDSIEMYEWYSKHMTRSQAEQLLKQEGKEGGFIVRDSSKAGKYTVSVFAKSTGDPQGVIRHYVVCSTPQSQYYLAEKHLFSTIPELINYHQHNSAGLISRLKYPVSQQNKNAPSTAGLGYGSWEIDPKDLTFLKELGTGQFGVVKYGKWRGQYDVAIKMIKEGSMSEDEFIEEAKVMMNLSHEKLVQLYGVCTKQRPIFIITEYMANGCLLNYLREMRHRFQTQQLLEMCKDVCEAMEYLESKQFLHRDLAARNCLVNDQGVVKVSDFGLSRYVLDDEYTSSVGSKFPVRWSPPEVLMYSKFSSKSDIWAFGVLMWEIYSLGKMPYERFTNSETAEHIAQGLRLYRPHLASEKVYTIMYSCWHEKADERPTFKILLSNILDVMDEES

FAK = biological target: T8, FAK (Homo sapiens, UniProt Q05397); assay: KINOMEscan; assay type: binding; details: 2000 nM; read-out: Percent Control
T8 construct: purchased DiscoverX (Eurofins) KINOMEscan / scanEDGE, inferred from the naming style
T8 sequence (Q05397 whole entry): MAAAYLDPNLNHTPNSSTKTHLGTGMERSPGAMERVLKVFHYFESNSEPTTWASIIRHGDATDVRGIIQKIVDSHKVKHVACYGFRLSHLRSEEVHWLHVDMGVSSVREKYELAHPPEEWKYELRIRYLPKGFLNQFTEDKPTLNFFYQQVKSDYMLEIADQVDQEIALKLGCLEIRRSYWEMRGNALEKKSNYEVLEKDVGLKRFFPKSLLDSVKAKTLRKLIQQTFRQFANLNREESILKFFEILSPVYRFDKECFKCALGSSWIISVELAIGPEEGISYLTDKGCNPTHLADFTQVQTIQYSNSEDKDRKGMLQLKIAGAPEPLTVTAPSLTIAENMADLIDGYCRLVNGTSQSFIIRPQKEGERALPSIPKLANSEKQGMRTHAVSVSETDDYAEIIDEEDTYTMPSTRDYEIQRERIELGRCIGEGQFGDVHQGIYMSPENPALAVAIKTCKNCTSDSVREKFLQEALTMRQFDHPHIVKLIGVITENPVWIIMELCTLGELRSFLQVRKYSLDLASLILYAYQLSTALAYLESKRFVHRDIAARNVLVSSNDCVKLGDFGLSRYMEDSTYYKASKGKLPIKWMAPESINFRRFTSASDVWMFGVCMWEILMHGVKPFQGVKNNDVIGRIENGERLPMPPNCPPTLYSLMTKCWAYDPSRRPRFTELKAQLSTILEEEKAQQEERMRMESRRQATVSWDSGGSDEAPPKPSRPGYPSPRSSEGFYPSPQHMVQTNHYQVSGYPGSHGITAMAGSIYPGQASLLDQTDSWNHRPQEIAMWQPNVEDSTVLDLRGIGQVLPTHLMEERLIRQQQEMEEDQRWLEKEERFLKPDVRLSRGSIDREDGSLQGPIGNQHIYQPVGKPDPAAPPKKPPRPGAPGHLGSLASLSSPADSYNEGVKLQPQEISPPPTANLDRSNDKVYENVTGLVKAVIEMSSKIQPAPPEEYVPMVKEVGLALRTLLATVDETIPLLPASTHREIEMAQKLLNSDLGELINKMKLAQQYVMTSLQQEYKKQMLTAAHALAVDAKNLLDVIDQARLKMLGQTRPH

FGFR3 = biological target: T9, FGFR3 (Homo sapiens, UniProt P22607); assay: KINOMEscan; assay type: binding; details: 2000 nM; read-out: Percent Control
T9 construct: purchased DiscoverX (Eurofins) KINOMEscan / scanEDGE, inferred from the naming style

Row | SMILES | effect on cell viability [1] | clonogenic survival of BJ TERT (in words) (BJ TERT cells) | IR-induced Mre11 or Nbs1 foci formation (in words) (U2OS cells [2]) | clonogenic survival in combination with IR (in words) (U2OS cells [3]) | remaining binding at 2 µM (BRAF(V600E)) [%] | remaining binding at 2 µM (CDK11) [%] | remaining binding at 2 µM (AKT2) [%] | remaining binding at 2 µM (CSNK1D) [%] | IC50 (PFKFB4; ADP-GLO assay) [µM] | selectivity window PFKFB3 versus PFKFB4 (PFKFB4; ratio of IC50 values) | remaining binding at 2 µM (CDK2) [%] | remaining binding at 2 µM [4] [%] | remaining binding at 2 µM (BTK) [%] | remaining binding at 2 µM (FAK) [%] | remaining binding at 2 µM (FGFR3) [%]
1 | O=C(OCCO)c1ccc(NS(=O)(=O)c2cccc(-c3cc(F)ccc3O)c2)cc1O [KAN0438757, 2-Hydroxyethyl-4-{[(5′-fluoro-2′-hydroxybiphenyl-3-yl)sulfonyl]amino}-2-hydroxybenzoate] | significantly reduce cell viability | only marginally affected | did not affect | dose-dependent radiosensitization | – | – | – | – | – | – | – | – | – | – | –
2 | O=C(O)c1ccc(NS(=O)(=O)c2cccc(-c3cc(F)ccc3O)c2)cc1O [KAN0438241, 4-{[(5′-Fluoro-2′-hydroxybiphenyl-3-yl)sulfonyl]amino}-2-hydroxybenzoic acid] | – | – | – | – | 97 | 96 | 97 | 100 | 3.6 | about 20 fold | 100 | 100 | 100 | 96 | 95
